Results from publication PMC10674894 (Viruses, 2023).

Key:
Vero cells = assay: Cytotoxicity MTT assay in Vero cells (MNTD, CC50); assay type: cell-based, African green monkey
CHIKV DRDE-07 = assay: In vitro screening against CHIKV (CPE inhibition and MTT cell viability); assay type: cell-based, chikungunya virus; conditions: for % Cell viability / CPE: Table S1, CHIKV-infected Vero cells; for % Cell viability / Cell Viability: 72 hpi; for % Cell viability: MTT assay; for CPE: arbitrary score of cytopathic effect at >48 hpi; for Cell Viability: CHIKV-infected Vero cells treated at MNTD, MTT, cell control + DMSO = 100%
[1] = maximum nontoxic dose in Vero cells, MTT

Structure (SMILES) | MNTD (Vero cells; Table S1, Vero cells) [µM] | % Cell viability (CHIKV DRDE-07) [%] | CPE (CHIKV DRDE-07) | MNTD (Vero cells; [1]) [µM] | Cell Viability (CHIKV DRDE-07) [%]
Clc1cccc(C2c3c(ccc4ccccc34)Oc3ccc4ccccc4c32)c1 [DCR116, 2‐(3‐chlorophenyl)‐13‐oxapentacyclo[12.8.0.0³,¹².0⁴,⁹.0¹⁷,²²]docosa‐1(14),3,5,7,9,11,15,17(22),18,20‐decaene] | 31.25 | 10.84 | ++++ (>60% (++++)) |  | 
Fc1ccc(C2c3c(ccc4ccccc34)Oc3ccc4ccccc4c32)cc1 [DCR117, 2‐(4‐fluorophenyl)‐13‐oxapentacyclo[12.8.0.0³,¹².0⁴,⁹.0¹⁷,²²]docosa‐1(14),3,5,7,9,11,15,17(22),18,20‐decaene] | 125 | 14.01 | ++++ (>60% (++++)) |  | 
CCc1ccc(C2c3c(ccc4ccccc34)Oc3ccc4ccccc4c32)cc1 [DCR118, 2‐(4‐ethylphenyl)‐13‐oxapentacyclo[12.8.0.0³,¹².0⁴,⁹.0¹⁷,²²]docosa‐1(14),3,5,7,9,11,15,17(22),18,20‐decaene] | 31.25 | 14.23 | ++++ (>60% (++++)) |  | 
Fc1cccc(C2c3c(ccc4ccccc34)Oc3ccc4ccccc4c32)c1 [DCR119, 2‐(3‐fluorophenyl)‐13‐oxapentacyclo[12.8.0.0³,¹².0⁴,⁹.0¹⁷,²²]docosa‐1(14),3,5,7,9,11,15,17(22),18,20‐decaene] | 31.25 | 18.74 | ++++ (>60% (++++)) |  | 
CC(C)C1c2c(ccc3ccccc23)Oc2ccc3ccccc3c21 [DCR120, 2‐(propan‐2‐yl)‐13‐oxapentacyclo[12.8.0.0³,¹².0⁴,⁹.0¹⁷,²²]docosa‐1(14),3,5,7,9,11,15,17(22),18,20‐decaene] | 31.25 | 19.24 | ++++ (>60% (++++)) |  | 
c1cncc(C2c3c(ccc4ccccc34)Oc3ccc4ccccc4c32)c1 [DCR121, 3‐{13‐oxapentacyclo[12.8.0.0³,¹².0⁴,⁹.0¹⁷,²²]docosa‐1(14),3,5,7,9,11,15,17(22),18,20‐decaen‐2‐yl}pyridine] | 31.25 | 8.03 | ++++ (>60% (++++)) |  | 
CC1(C)CC(=O)C2=C(C1)OC1=C(C(=O)CC(C)(C)C1)C2c1ccc(Cl)cc1 [DCR122, 9‐(4‐chlorophenyl)‐3,3,6,6‐tetramethyl‐2,3,4,5,6,7,8,9‐octahydro‐1H‐xanthene‐1,8‐dione] | 31.25 | 11.09 | ++++ (>60% (++++)) |  | 
CC1(C)CC(=O)C2=C(C1)OC1=C(C(=O)CC(C)(C)C1)C2c1cccc(O)c1 [DCR123, 9‐(3‐hydroxyphenyl)‐3,3,6,6‐tetramethyl‐2,3,4,5,6,7,8,9‐octahydro‐1H‐xanthene‐1,8‐dione] | 125 | 12.01 | ++++ (>60% (++++)) |  | 
CC1(C)CC(=O)C2=C(C1)OC1=C(C(=O)CC(C)(C)C1)C2c1ccccc1Cl [DCR124, 9‐(2‐chlorophenyl)‐3,3,6,6‐tetramethyl‐2,3,4,5,6,7,8,9‐octahydro‐1H‐xanthene‐1,8‐dione] | 125 | 11.05 | ++++ (>60% (++++)) |  | 
COc1cccc(C2C3=C(CC(C)(C)CC3=O)OC3=C2C(=O)CC(C)(C)C3)c1 [DCR125, 9‐(3‐methoxyphenyl)‐3,3,6,6‐tetramethyl‐2,3,4,5,6,7,8,9‐octahydro‐1H‐xanthene‐1,8‐dione] | 125 | 11.19 | ++++ (>60% (++++)) |  | 
CC1(C)CC(=O)C2=C(C1)OC1=C(C(=O)CC(C)(C)C1)C2c1ccc([N+](=O)[O-])cc1 [DCR126, 3,3,6,6‐tetramethyl‐9‐(4‐nitrophenyl)‐2,3,4,5,6,7,8,9‐octahydro‐1H‐xanthene‐1,8‐dione] | 15.6 | 17.99 | ++++ (>60% (++++)) |  | 
Cc1ccc(C2C3=C(CC(C)(C)CC3=O)OC3=C2C(=O)CC(C)(C)C3)cc1 [DCR127, 3,3,6,6‐tetramethyl‐9‐(4‐methylphenyl)‐2,3,4,5,6,7,8,9‐octahydro‐1H‐xanthene‐1,8‐dione] | 125 | 10.21 | ++++ (>60% (++++)) |  | 
COc1ccc(C2C3=C(CC(C)(C)CC3=O)OC3=C2C(=O)CC(C)(C)C3)cc1 [DCR128, 9‐(4‐methoxyphenyl)‐3,3,6,6‐tetramethyl‐2,3,4,5,6,7,8,9‐octahydro‐1H‐xanthene‐1,8‐dione] | 125 | 11.01 | ++++ (>60% (++++)) |  | 
CC1(C)CC(=O)C2=C(C1)OC1=C(C(=O)CC(C)(C)C1)C2c1cccc([N+](=O)[O-])c1 [DCR129, 3,3,6,6‐tetramethyl‐9‐(3‐nitrophenyl)‐2,3,4,5,6,7,8,9‐octahydro‐1H‐xanthene‐1,8‐dione] | 31.25 | 16.85 | ++++ (>60% (++++)) |  | 
CCOc1cc(C2C3=C(CC(C)(C)CC3=O)OC3=C2C(=O)CC(C)(C)C3)ccc1O [DCR130, 9‐(3‐ethoxy‐4‐hydroxyphenyl)‐3,3,6,6‐tetramethyl‐2,3,4,5,6,7,8,9‐octahydro‐1H‐xanthene‐1,8‐dione] | 15.6 | 17.21 | ++++ (>60% (++++)) |  | 
COc1cc(Br)cc(C2C3=C(CC(C)(C)CC3=O)OC3=C2C(=O)CC(C)(C)C3)c1 [DCR131, 9‐(3‐bromo‐5‐methoxyphenyl)‐3,3,6,6‐tetramethyl‐2,3,4,5,6,7,8,9‐octahydro‐1H‐xanthene‐1,8‐dione] | 125 | 8.01 | ++++ (>60% (++++)) |  | 
CC1(C)CC(=O)C2=C(C1)OC1=C(C(=O)CC(C)(C)C1)C2c1ccccn1 [DCR132, 3,3,6,6‐tetramethyl‐9‐(pyridin‐2‐yl)‐2,3,4,5,6,7,8,9‐octahydro‐1H‐xanthene‐1,8‐dione] | 125 | 9.06 | ++++ (>60% (++++)) |  | 

Structure (SMILES) | MNTD (Vero cells; Table S1, Vero cells) [µM] | % Cell viability (CHIKV DRDE-07) [%] | CPE (CHIKV DRDE-07) | MNTD (Vero cells; [1]) [µM] | Cell Viability (CHIKV DRDE-07) [%]
CC1(C)CC(=O)C2=C(C1)OC1=C(C(=O)CC(C)(C)C1)C2c1ccc(C2C3=C(CC(C)(C)CC3=O)OC3=C2C(=O)CC(C)(C)C3)cc1 [DCR133, 3,3,6,6‐tetramethyl‐9‐[4‐(3,3,6,6‐tetramethyl‐1,8‐dioxo‐dodecahydro‐1H‐xanthen‐9‐yl)phenyl]‐2,3,4,5,6,7,8,9‐octahydro‐1H‐xanthene‐1,8‐dione] | 125 | 11.14 | ++++ (>60% (++++)) |  | 
N#Cc1ccccc1N1CCCCC1 [DCR140, 2-Piperidin-1-yl-benzonitrile] | 250 | 14.97 | ++++ (>60% (++++)) |  | 
N#Cc1c(F)cccc1N1CCCCC1 [DCR141, 2-Fluoro-6-piperidin-1-yl-benzonitrile] | 125 | 19.24 | ++++ (>60% (++++)) |  | 
CC1CN(c2ccccc2C#N)CC(C)N1 (centres unmarked) [DCR142, 2-(3,5-Dimethyl-piperazin-1-yl)-benzonitrile] | 125 | 13.08 | ++++ (>60% (++++)) |  | 
COc1cccc(N2CCCCC2)c1C#N [DCR143, 2-Methoxy-6-piperidin-1-yl-benzonitrile] | 125 | 17.42 | ++++ (>60% (++++)) |  | 
O=[N+]([O-])c1ccc(N2CCCCC2)c([N+](=O)[O-])c1 [DCR144, 1-(2,4-Dinitro-phenyl)-piperidine] | 125 | 25.21 | ++++ (>60% (++++)) |  | 
N#Cc1cc(F)ccc1N1CCCCC1 [DCR145, 5-Fluoro-2-piperidin-1-yl-benzonitrile] | 125 | 0 | ++++ (>60% (++++)) |  | 
N#Cc1ccccc1N1CCOCC1 [DCR146, 2-Morpholin-4-yl-benzonitrile] | 250 | -3.98 | ++++ (>60% (++++)) |  | 
N#Cc1ccccc1NCc1ccccc1 [DCR147, 2-Benzylamino-benzonitrile] | 125 | 17.97 | ++++ (>60% (++++)) |  | 
CC1CN(c2ccc(C#N)c(Cl)c2)CC(C)N1 (centres unmarked) [DCR148, 2-Chloro-4-(3,5-dimethyl-piperazin-1-yl)-benzonitrile] | 125 | 14.42 | ++++ (>60% (++++)) |  | 
CC1CN(c2ccc(C(=N)NO)c(Cl)c2)CC(C)N1 (centres unmarked) [DCR149, 2-Chloro-4-(3,5-dimethyl-piperazin-1-yl)-N-hydroxy-benzamidine] | 125 | -21.8 | ++++ (>60% (++++)) |  | 
N#Cc1ccc(N2CCN(CCO)CC2)cc1N1CCN(CCO)CC1 [DCR150, 2,4-Bis-[4-(2-hydroxy-ethyl)-piperazin-1-yl]-benzonitrile] | 62.5 | 18.09 | ++++ (>60% (++++)) |  | 
Brc1cc2c(c3ncccc13)Oc1ncccc1O2 [DCR 1, 5-bromo-7,12-dioxa-1,11-diaza-benzo[a]anthracene] | 50 |  | ++ (50-30% (++)) | 50 | 72
Brc1cc2c(c3ncccc13)Oc1cc(Br)c3cccnc3c1O2 [DCR 2, 5,12-dibromo-[1,4]dioxino[2,3-h:5,6-h’]diquinoline] | 50 |  | ++ (50-30% (++)) | 50 | 63
Clc1ncccc1Oc1cc2c(c3ncccc13)Oc1ncccc1O2 [DCR 3, 7-[(2-chloropridin-3-yl)oxy]-5,12-dioxa-1,11-diazatetraphene] | 50 |  | ++ (50-30% (++)) | 50 | 69.9
Nc1nc(N)c2ccccc2n1 [DCR 134, Quinazoline-2,4-diamine] | 150 |  | + (<30%) | 150 | 75.9
Nc1nc(N)c2c(F)cccc2n1 [DCR 135, 5-fluoro-quinazoline-2,4-diamine] | 250 |  | ++ (50-30% (++)) | 250 | 61
